Measurements taken from EP1028734B1, “USE OF SPECIFIC STEADY-STATE R-TYPE CALCIUM CHANNEL BLOCKERS” (priority 1997, dated 1999).

What was measured:
L-type Ca^2+ channel = experiment: whole-cell voltage clamp, L-type ICa of heart cells of chick embryos; assay type: cell-based
Protocol: Single cells of different types in culture were prepared from biopsies of human, chick and rabbit. Known and accepted methods for the isolation of fast Na^+ current, T, L and R-type Ca^2+ channels as well as delayed outward K^+ current were used (Bkaily 1994, supra).
The compounds to be tested are added to the appropriate extracellular solution after recording a stable ionic current or normal steady-state level of [Ca]n and [Ca]n The effect of different concentrations of compounds are tested on the different type of current and [Ca]i of the different cell types. The effect of each concentration of the compounds in function of the time of exposure are then determined. Once the steady-state effect is reached, the second concentration is added, etc.
In another series of experiments (n=5), the effect of different concentrations of MV8608 (10^-11 to 10^-6M) were tested on the L-type ICa of heart cells of chick embryos using the whole-cell and experimental conditions and protocols described elsewhere by the inventors (Bkaily G. et al., 1993, supra). As for the T-type ICa' the L-type ICa was not affected by 10^-11 to 10^-10M MV8608.
In another series of experiments (n=4), we tested the effect of MV8612 on the L-type Ca^2+ current (ICa) in chick embryonic heart cells using the whole-cell voltage clamp technique referred to above. Superfusion with 10^-9M of MV8612 decreased ICa amplitude by 10% and increasing the concentration of the compound up to 10^-8M further decreased the current amplitude by 25%. Higher concentration of MV8612 (10^-7M) decreased the ICa amplitude by 62%.

R-type Ca^2+ channel = experiment: Fura-2 total [Ca]i measurement, sustained increase of [Ca]i via stimulation of R-type Ca2+ channels; assay type: cell-based, chick, human, rabbit
Text: This sustained increase of Ca^2+ induced by depolarization of the cell membrane or hormones such as PAF, ET-1 and bradykinin is due to the increase of Ca^2+ influx through the R-type Ca^2+ channels at the sarcolemmal membrane and/or the nuclear membrane (Bkaily G., 1994, supra; 1996, supra; 1997a-d, supra). Using Ca^2+ fluorescence probes Fura-2 or Fluo-3 and 2 and three-dimension Ca^2+ imaging techniques (Bkaily G., 1994, supra; 1996, supra; 1997a-d, supra), the effect of hormones and drugs could be easily tested. These two methods are used with single cells of different types as described above. […]
Using Fura-2 [Ca]i measurement technique, in one series of experiments we tested the effect of MV8612 (10^-9M) on the stimulation of R-type Ca^2+-induced sustained increase of [Ca]i by sustained depolarization (Figures 26 and 27), PAF (10^-9M, Figure 34) and ET-1 (Figures 33 and 34).

[1] = tested on: double-perfused mesenteric bed of the rat; experiment: double-perfused mesenteric bed of the rat
Text: The inhibitory properties of MV8608 are specific for PAF as the response to ACh (arterial) and Angll (venous) are unaffected by the pregnane-containing moiety.

rat paw oedema = assay type: in vivo, rats
Protocol: In this experiment (N =5 to 6 animals per group), the anti-oedemagenic action of compounds MV 8608 and MV 8612 against bradykinin and several mediators which are reported to be involved in the inflammatory processes, was evaluated. The procedures used to perform these experiments have been reported elsewhere (Neves et al., 1993, Eur. J. Pharmacol. 243:213-219; Campos et al., 1995, Br. J. Pharmacol. 114:1005-1013; Campos et al., 1996, Br. J. Pharmacol. 117:793-798; Eur. J. Pharmacol. 316:227-286). […] As reported previously, in rats treated […] prior to a systemic injection of LPS, both B1 and B2 kinin selective agonists caused marked oedema formation (Figures 37C and D (Campos et al., 1996, supra)).

murine model of pleurisy = assay type: in vivo, mice
Protocol: To assess further the anti-inflammatory action of MV 8612 and MV 8608, their effects against the inflammatory responses caused by several mediators of inflammation in a murine model of pleurisy were tested (Saleh et al., 1996, Br. J. Pharmacol 118:811-819). In addition, both compounds were tested against the increase of vascular permeability caused by bradykinin in the rat skin (Neves et al., 1993b, Phytotherapy Research. 7:356-362).

[2] = 100 nmol/paw, rats treated 30 days prior (text LPS, Figure 37 BCG)
[3] = 10 and 100 nmol/paw co-injected
[4] = 10 and 100 nmol/paw, dose-dependant
[5] = MV 8612 30 and 60, MV 8608 30, i.p.

(15R, 16R, 20S)-14, 16:15,20:16,21-triepoxi-15,16-seco 14β, 17α-pregn-5-ene-3β, 15-diol [MV8608]
ICa amplitude (L-type), further change (L-type Ca^2+ channel; 5 x 10^-7M): a further slight increase
decrease of ICa amplitude (L-type) (L-type Ca^2+ channel; 10^-9M): 10%
L-type ICa (L-type Ca^2+ channel; 10^-11 to 10^-10M): not affected
sustained increase of [Ca]i induced by 10^-7M PAF (R-type Ca^2+ channel; 10^-6M of compound, human aortic VSM cell line (Figure 23)): able to block
sustained increase of [Ca]i induced by 10^-7M PAF (R-type Ca^2+ channel; 10^-9M of compound): failed to significantly decrease
sustained increase of [Ca]i induced by sustained depolarization, ET-1 (10^-9M), PAF (10^-9M) or BK (10^-6M) (R-type Ca^2+ channel; 10^-9M of compound): completely blocked
time within which the block occurred (R-type Ca^2+ channel; 10^-9M of compound): 4 to 5 min
basal sustained increase of [Ca]i (R-type Ca^2+ channel; 10^-9M, freshly isolated human aortic endothelial cells, Figure 22): decrease
blockade of the R-type Ca^2+ channel across cell types (R-type Ca^2+ channel; incl. MG63, FAOS-2, atherosclerotic human VSM cells, endothelial cells, T-lymphocytes, platelets (not shown), AOSMC-9): blocked the R-type Ca^2+ channel in all cell types used
response to ACh (arterial) and AngII (venous) [1]: unaffected
PAF induced arterial vasodilatation and venconstriction ([1]; 1 µM, Figure 24): blocked
PAF-induced responses ([1]; concentration series): concentration-dependent inhibition
oedema induced by prostaglandin E2 (PGE2) (rat paw oedema; 100 nmol/paw): partially inhibited
oedema induced by substance P (rat paw oedema; 100 nmol/paw): unaffected
paw oedema induced by PAF (rat paw oedema; 100 nmol/paw): consistently inhibited
bradykinin-induced rat paw oedema (rat paw oedema; [2]): significantly inhibited
des-Arg^9-BK-induced rat paw oedema (rat paw oedema; [2]): significantly inhibited
carrageenan-induced paw oedema (rat paw oedema; 10 and 100 nmol/paw): significantly prevented
dextran-induced paw oedema (rat paw oedema; [3]): significantly prevented
histamine-induced paw oedema (rat paw oedema; [3]): significantly prevented
serotonin-induced paw oedema (rat paw oedema; [3]): significantly prevented
paw oedema induced by des-Arg^9-bradykinin (rat paw oedema; 10 and 100 nmol/paw co-injected, animals treated with LPS): dose-related inhibition
oedema formation induced by subplantar injection of ovalbumin (rat paw oedema; 10 and 100 nmol/paw, animals actively sensitised): inhibited significantly
bradykinin-induced hindpaw oedema (rat paw oedema; 10 and 100 nmol/paw, animals treated with LPS): no significant effect
potentiation of paw oedema by low dose of des-Arg^9-BK plus PAF (rat paw oedema; [4]): prevented the potentiation
potentiation of paw oedema by low dose of des-Arg^9-BK with PGE2 (rat paw oedema; [4]): prevented the potentiation
mononuclear cells influx, intrapleural PAF (murine model of pleurisy; 30, i.p.): antagonised significantly
plasma extravasation, intrapleural PAF (murine model of pleurisy; 30, i.p.): antagonised significantly
neutrophils cells, intrapleural carrageenan (murine model of pleurisy; [5]): inhibited significantly
total cells, intrapleural carrageenan (murine model of pleurisy; [5]): inhibited significantly
